Assays:
[1] = ELISA on biotin-coated plate, bound protein detected with anti-streptavidin antibody-HRP; type: binding; conditions: 0-1.1 μg/well on biotin-coated plate
Procedure: (§1) FIG. 4, panels A and B show data from enzyme-linked immunosorbent assay (ELISA) analysis of recombinant proteins for biotin and Her2-Fc binding ability. Panel A: Streptavidin or ASA was immobilized on biotin-coated plate. Bound protein was detected using an anti-streptavidin antibody-HRP. Panel B: After immobilization of Streptavidin or ASA on biotin-coated plate, Her2-human Fc fusion was added to each plate and bound fusion protein was detected using anti-Her2 antibody and anti-mouse IgG-HRP. The amounts of Streptavidin or ASA fusion protein used in this experiment were: well 1: 0; 2: 0.11 ng; 3: 1.1 ng; 4: 11 ng; 5: 110 ng; 6: 1100 ng.
(§2) The binding of ASA to Biotin and Her2 was determined by a modified ELISA assay. ELISA was performed at room temperature (RT) or 4° C. Purified streptavidin or ASA (0-1.1 μg/well) was immobilized on the biotin-coated ELISA plate (Pierce) for 1 hr at 4° C. in PBS. […] The A450 nm value of the plates was determined using an ELISA reader. Bound streptavidin was detected by the same method using an anti-streptavidin-HRP in PBS (1; 500 dilution; 50 μL/well).
(§3) The ASA fusion protein was tested to determine if it would bind to biotin as well as Her2. […] Bound Her2-Fc was detected by the mouse anti-Her2 antibody (4D5) and the HRP-conjugated anti-mouse IgG antibody.

[2] = target: T1, Her2-human Fc fusion protein (Homo sapiens, UniProt P04626); assay: ELISA for Her2-Fc binding of protein immobilized on biotin-coated plate; conditions: 0-1.1 μg/well immobilized on biotin-coated plate; Her2-Fc 50 ng/well
T1 construct: Her2-human Fc fusion protein that was composed of the ectodomain of Her2 and the Fc of human IgG; purchased Xcyte Therapeutic, Seattle, Wash
Procedure: as §1, §2, §3

[3] = system: T6-17 cells (Her2 transformed cells); assay: MTT cell proliferation assay, T6-17 cells; type: cell-based
Procedure: (§4) FIG. 5, panels A and B show inhibition of cell proliferation by ASA. Effects of ASA treatment, or treatments with streptavidin and the peptide AHNP, on the proliferation of T6-17 (Her2 transformed cells, Panel A) or NR6 (control cells, Panel B) were shown; Cell proliferation was measured by the standard MTT assay performed on poly-HEMA plates (for T6-17) or regular tissue culture plates (for NR6).
(§5) T6-17 and NR6 cells were grown in DMEM medium supplemented with 10% heat inactivated fetal calf serum, L-glutamine (2 mM), penicillin (100 U/ml) and streptomycin (100 μg/ml) at 37° C. in a humidified 5% CO2 atmosphere.
(§6) The MTT assay has been used modified method for measuring cell growth. T6-17 cells or NR6 cells were seeded in poly 2-hydroxyethyl methacrylate coated 96 well plates (50 μl/well, 800 cells/well or 1200 cells/well). Then the Streptavidin or ASA protein or the AHNP peptide were (50 μl/well, 0.69 μM or 6.9 μM) and incubate at 37° C. in a humidified 5% CO2 atmosphere for 48 hr. A total of 25 μl of MTT solution (5 mg/ml in PBS) was added to each well, and after 2 hr of incubation at 37° C., 100 μl of the extraction-buffer (20% w/v SDS, 50% N,N-dimethyl formamide, pH 4.7) were added. After an overnight incubation at 37° C., the optical density at […] was measured using an ELISA reader.

[4] = system: NR6 cells (control cells); assay: MTT cell proliferation assay, NR6 control cells; type: cell-based; conditions: NR6 control cell line
Procedure: as §4, §5, §6

[5] = system: T6-17 cells injected subcutaneously into nude mice; assay: T6-17 tumor growth in nude mice; type: in vivo; conditions: for reduction of tumor size: day 14
Procedure: 1 million of T6-17 cells were injected subcutaneously into nude mice to induce the tumor growth. Panel A. Treatment of ASA started from day 0. Panel B. Treatment started on day 2 after tumor were palpable. NCR homozygous athymic (nude) mice (six to eight weeks-old) were purchased from the National Cancer Institute. To induce tumor, 10^6 transformed T6-17 cells were suspended in 100 μl of PBS and injected subcutaneously into the flank of each animal. Animals were maintained in accordance with guidelines of the Institutional Animal Care and Use Committee (IACUC) of the University of […]. Tumor volume was calculated by the formula: π*length*width*Height/6. T6-17 cells were transformed by the over-expression of human Her2/neu […]. […] In one experiment, animals were treated with either streptavidin or ASA (11.25 mg/kg/week). Treatment stared from day 0 and was provided to animals by three subcutaneous injections each week. […] Treatment was also provided to mice by a different administration route in a second experiment, in which intraperitoneal treatment started day 2 after palpable tumor appeared ( 2 cubic mm) (FIG. 6, Panel B). ASA was given at the dose of 15 mg/kg/week, divided into three injections.

[6] = in vivo; cited from earlier work

| Substance | binding to biotin (ELISA) [1] | binding to Her2-Fc fusion (ELISA) [2] | inhibition of cell proliferation ([3]; T6-17 cells, two different concentrations (0.69 μM or 6.9 μM), 48 hr, MTT) | molar concentration of ASA relative to the AHNP peptide necessary to achieve 50% cell growth inhibition in vitro ([3]; in vitro, relative to AHNP peptide) | inhibitory effect on cell proliferation [4] | appearance of palpable tumor prevented until ([5]; 11.25 mg/kg/week, subcutaneous, from day 0) | molar excess of AHNP with comparable activity in reducing tumor growth in vivo ([5]; ASA compared with AHNP) | reduction of tumor size ([5]; 11.25 mg/kg/week, three subcutaneous injections each week, from day 0) | reduction of tumor size ([5]; intraperitoneal, 15 mg/kg/week in three injections, from day 2 after palpable tumor, vs vehicle control) | serum half-life [6] |
| --- | --- | --- | --- | --- | --- | --- | --- | --- | --- | --- |
| ASA: Recombinant fusion of AHNP peptide, 11 amino acid linker GGGGSRSNSSS, streptavidin core and C-terminal NSSS linker plus His-tag; forms tetramer | bound to biotin in a dose-dependent manner | able to bind to the Her2-Fc fusion in a dose-dependent manner | 20-50% | about 10 times | Inhibitory effects were not observed | 7 days | ~30 fold | 62% | about 47.6% | – |
| streptavidin: Tetrameric biotin-binding protein produced by Streptomyces avidinii; recombinant core used as control [reference compound] | bound to biotin in a dose-dependent manner | didn't bind to the Her2-human Fc fusion protein even at the highest concentration | – | – | – | – | – | – | – | about 12 hours |

From patent US7906624B2, “Binding peptidomimetics and uses of the same” (The Trustees of the University of Pennsylvania, priority 2004, dated 2011)
